# Reference: patent publication US8198311B2, “Modulators of glucocorticoid receptor, AP-1, and/or NF-κB activity and use thereof” (Bristol-Myers Squibb Company, priority 2006, dated 2012)
# Where two headings read alike, the source gives them in different places.
# Key:
# [1] = molecular target: T1, human glucocorticoid receptor (Homo sapiens, UniProt P04150); experiment: Glucocorticoid Receptor Binding Assay (I), fluorescence polarization competitor kit (Fluormone GS Red); settings: purified human recombinant full-length GR
# T1 construct: purified human recombinant full-length glucocorticoid receptor (2 nM); purchased Invitrogen Part # 2893
# T1 sequence (P04150 1-777): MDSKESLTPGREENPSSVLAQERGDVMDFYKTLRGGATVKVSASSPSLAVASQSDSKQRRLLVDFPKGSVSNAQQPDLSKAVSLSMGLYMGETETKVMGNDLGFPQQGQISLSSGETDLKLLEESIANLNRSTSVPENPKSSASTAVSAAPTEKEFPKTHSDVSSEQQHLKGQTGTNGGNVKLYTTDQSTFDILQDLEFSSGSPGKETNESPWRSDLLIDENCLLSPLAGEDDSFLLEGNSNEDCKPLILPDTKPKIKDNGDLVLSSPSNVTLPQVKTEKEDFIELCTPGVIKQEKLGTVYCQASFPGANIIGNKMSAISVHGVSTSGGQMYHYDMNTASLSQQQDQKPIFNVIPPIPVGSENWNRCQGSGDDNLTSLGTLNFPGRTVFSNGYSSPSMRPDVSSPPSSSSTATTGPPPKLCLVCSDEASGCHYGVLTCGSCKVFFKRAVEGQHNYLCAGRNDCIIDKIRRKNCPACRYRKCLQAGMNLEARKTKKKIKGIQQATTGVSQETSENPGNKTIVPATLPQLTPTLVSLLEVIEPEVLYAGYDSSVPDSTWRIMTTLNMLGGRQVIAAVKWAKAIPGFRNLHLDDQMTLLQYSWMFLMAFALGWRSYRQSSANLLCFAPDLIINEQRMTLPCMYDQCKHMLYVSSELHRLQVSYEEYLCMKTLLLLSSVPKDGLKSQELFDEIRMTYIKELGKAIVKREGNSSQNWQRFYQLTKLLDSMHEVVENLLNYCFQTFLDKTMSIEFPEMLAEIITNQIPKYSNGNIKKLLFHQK
# Experimental: In order to assess the affinity of test compounds for the human glucocorticoid receptor, a commercially available kit was used (Glucocorticoid Receptor Competitor Assay Kit, Invitrogen Part # 2893). Briefly, purified human recombinant full-length glucocorticoid receptor (2 nM) was mixed with fluorescently labeled glucocorticoid (1 nM Fluormone GS Red) in the presence or absence of test compound. After two hour incubation at room temperature in the dark, the fluorescence polarization (FP) of the samples was measured. […] Test compounds were analyzed in the concentration range from 8.5E-05 μM to 5 μM.
# [2] = system: AP-1 induced transcriptional activity; experiment: Cellular Transrepressional Assay (AP-1 luciferase reporter in A549 cells, PMA-activated); format: cell-based; settings: pAP-1-Luc, 10 ng/ml PMA, read-out: AP-1 (EC50, nM) (Cellular Transrepression Assay)
# Experimental: To measure the ability of test molecules to inhibit AP-1 induced transcriptional activity an A549 cell was utilized which was stably transfected with a plasmid containing 7×AP-1 DNA binding sites (pAP-1-Luc plasmid, Stratagene Co. La Jolla, Calif.) followed by the gene for luciferase. Cells were activated with 10 ng/ml of phorbol myristic acid (PMA) plus or minus test molecules for 7 hours. After 7 hours a luciferase reagent was added to measure luciferase enzymatic activity in the cell. After a 10 minute incubation of luciferase reagent with cells, luminescence was measured in a TopCount luminescence counter. Repression of AP-1 activity was calculated as the percentage decrease in the signal induced by PMA alone. Test molecules were analyzed in the concentration range from 0.1 nM to 40 μM. EC50s were determined by using standard curve fitting methods such as Excel fit (Microsoft Co.).
Ki [1],EC50 ([2]; 7 hours),"EC50 ([2]; Homo sapiens, A549, 7 h)",SMILES
15 nM,201 nM,,"CC(CNS(=O)(=O)CC(F)(F)F)C(c1ccccc1)c1ccc2c(cnn2-c2ccc(F)cc2)c1 (single isomer, unassigned) [Example 91B, 2,2,2-trifluoro-N-(3-(1-(4-fluorophenyl)-1H-indazol-5-yl)-2-methyl-3-phenylpropyl)ethanesulfonamide]"
5.8 nM,,194 nM,"CC(C)CC(c1ccc2c(cnn2-c2ccc(F)cc2)c1)C(C)(C)CNC(=O)N[C@H]1CCc2ccccc21 (stereo partly drawn) [Example 71A, 1-((S)-2,3-dihydro-1H-inden-1-yl)-3-(3-(1-(4-fluorophenyl)-1H-indazol-5-yl)-2,2,5-trimethylhexyl)urea]"
6.1 nM,,80 nM,"CC(C)CC(c1ccc2c(cnn2-c2ccc(F)cc2)c1)C(C)(C)CNC(=O)NC(C)(C)C(=O)Nc1ccccc1 (stereo not drawn) [Example 56, 2-(3-(3-(1-(4-fluorophenyl)-1H-indazol-5-yl)-2,2,5-trimethylhexyl)ureido)-2-methyl-N-phenylpropanamide]"
8.4 nM,,691 nM,"CC(C)(C)NC(=O)NCC(C)(C)C(c1ccc2c(cnn2-c2ccc(F)cc2)c1)C1CC1 (stereo not drawn) [Example 102, 1-tert-butyl-3-(3-cyclopropyl-3-(1-(4-fluorophenyl)-1H-indazol-5-yl)-2,2-dimethylpropyl)urea]"
2.1 nM,5.7 nM,,"CC(CNS(=O)(=O)CC(F)(F)F)C(c1ccccc1)c1ccc2c(cnn2-c2ccc(F)cc2)c1 (single isomer, unassigned) [Example 91A, 2,2,2-trifluoro-N-(3-(1-(4-fluorophenyl)-1H-indazol-5-yl)-2-methyl-3-phenylpropyl)ethanesulfonamide]"
7.4 nM,,143 nM,"CC(C)CC(c1ccc2c(cnn2-c2ccc(F)cc2)c1)C(C)(C)CNC(=O)N[C@@H](C)C(C)(C)C (stereo partly drawn) [Example 77, 1-((S)-3,3-dimethylbutan-2-yl)-3-(3-(1-(4-fluorophenyl)-1H-indazol-5-yl)-2,2,5-trimethylhexyl)urea]"
43 nM,136 nM,,"CC(CNC(=O)NC(C)(C)C)C(c1ccccc1)c1ccc2c(cnn2-c2ccc(F)cc2)c1 (single isomer, unassigned) [Example 97B, 1-tert-butyl-3-(3-(1-(4-fluorophenyl)-1H-indazol-5-yl)-2-methyl-3-phenylpropyl)urea]"
8.1 nM,,> 10000 nM,"CC(C)CC(c1ccc2c(cnn2-c2ccc(F)cc2)c1)C(C)(C)CNC(=O)NC(C)(C)CN (stereo not drawn) [Example 41, 1-(1-amino-2-methylpropan-2-yl)-3-(3-(1-(4-fluorophenyl)-1H-indazol-5-yl)-2,2,5-trimethylhexyl)urea]"
1.8 nM,,306 nM,"Cc1cc(C(C)(C)NC(=O)NCC(C)(C)C(CC(C)C)c2ccc3c(cnn3-c3ccc(F)cc3)c2)ccn1 (stereo not drawn) [Example 53, 1-(3-(1-(4-fluorophenyl)-1H-indazol-5-yl)-2,2,5-trimethylhexyl)-3-(2-(2-methylpyridin-4-yl)propan-2-yl)urea]"
21 nM,176 nM,,"CC(CNC(=O)CC(F)(F)F)C(c1ccccc1)c1ccc2c(cnn2-c2ccc(F)cc2)c1 (single isomer, unassigned) [Example 90B, 3,3,3-trifluoro-N-(3-(1-(4-fluorophenyl)-1H-indazol-5-yl)-2-methyl-3-phenylpropyl)propanamide]"
1.2 nM,,27 nM,"CCCS(=O)(=O)NCC(C)C(c1ccccc1)c1ccc2c(cnn2-c2ccc(F)cc2)c1 (stereo not drawn) [Example 95, N-(3-(1-(4-fluorophenyl)-1H-indazol-5-yl)-2-methyl-3-phenylpropyl)propane-1-sulfonamide]"
22 nM,,285 nM,"CC(C)CC(c1ccc2c(cnn2-c2ccc(F)cc2)c1)C(C)(C)CNC(=O)NC(C)(C)Cc1ccc(F)cc1 (stereo not drawn) [Example 54, 1-(3-(1-(4-fluorophenyl)-1H-indazol-5-yl)-2,2,5-trimethylhexyl)-3-(1-(4-fluorophenyl)-2-methylpropan-2-yl)urea]"
2.4 nM,7.4 nM,,"CC(CNC(=O)CC(F)(F)F)C(c1ccccc1)c1ccc2c(cnn2-c2ccc(F)cc2)c1 (single isomer, unassigned) [Example 90C, 3,3,3-trifluoro-N-(3-(1-(4-fluorophenyl)-1H-indazol-5-yl)-2-methyl-3-phenylpropyl)propanamide]"
177 nM,,> 10000 nM,"CC(C)(CNC(=O)Nc1ccccn1)C(C)(C)c1ccc2c(cnn2-c2ccc(F)cc2)c1 [Example 116, 1-(3-(1-(4-fluorophenyl)-1H-indazol-5-yl)-2,2,3-trimethylbutyl)-3-(pyridin-2-yl)urea]"
8.9 nM,,628 nM,"CC(C)CC(c1ccc2c(cnn2-c2ccc(F)cc2)c1)C(C)(C)CNC(=O)N[C@H](C)c1cccc2ccccc12 (stereo partly drawn) [Example 75, 1-(3-(1-(4-fluorophenyl)-1H-indazol-5-yl)-2,2,5-trimethylhexyl)-3-((R)-1-(naphthalene-1-yl)ethyl)urea]"
0.92 nM,,5.6 nM,"CCS(=O)(=O)NCC(C)C(c1ccccc1)c1ccc2c(cnn2-c2ccc(F)cc2)c1 (stereo not drawn) [Example 93, N-(3-(1-(4-fluorophenyl)-1H-indazol-5-yl)-2-methyl-3-phenylpropyl)ethanesulfonamide]"
11 nM,,> 10000 nM,"CC(C)CC(c1ccc2c(cnn2-c2ccc(F)cc2)c1)C(C)(C)CNC(=O)N1CC(N)C1 (stereo not drawn) [Example 40, 3-amino-N-(3-(1-(4-fluorophenyl)-1H-indazol-5-yl)-2,2,5-trimethylhexyl)azetidine-1-carboxamide]"
44 nM,,> 10000 nM,"CC(C)CC(c1ccc2[nH]ncc2c1)C(C)(C)CNC(=O)NC(C)(C)C (stereo not drawn) [Example 70, 1-(3-(1H-indazol-5-yl)-2,2,5-trimethylhexyl)-3-tert-butylurea]"
26 nM,,> 10000 nM,"CC(C)CC(c1ccc2c(cnn2-c2ccc(F)cc2)c1)C(C)(C)CNC(=O)NC1CCC(C(C)(C)C)CC1 (stereo not drawn) [Example 74, 1-(4-tert-butylcyclohexyl)-3-(3-(1-(4-fluorophenyl)-1H-indazol-5-yl)-2,2,5-trimethylhexyl)urea]"
3.3 nM,,304 nM,"CC(C)(C)NC(=O)NCC(C)(C)C(c1ccc2c(cnn2-c2ccc(F)cc2)c1)C1CCCC1 (stereo not drawn) [Example 106, 1-tert-butyl-3-(3-cyclopentyl-3-(1-(4-fluorophenyl)-1H-indazol-5-yl)-2,2-dimethylpropyl)urea]"
74 nM,2500 nM,,"CC(CNS(=O)(=O)CC(F)(F)F)C(c1ccccc1)c1ccc2c(cnn2-c2ccc(F)cc2)c1 (single isomer, unassigned) [Example 91D, 2,2,2-trifluoro-N-(3-(1-(4-fluorophenyl)-1H-indazol-5-yl)-2-methyl-3-phenylpropyl)ethanesulfonamide]"
8.7 nM,,> 10000 nM,"CC(C)CC(c1ccc2c(cnn2-c2ccc(F)cc2)c1)C(C)(C)CNC(=O)N[C@@H](C)c1cccc2ccccc12 (stereo partly drawn) [Example 76, 1-(3-(1-(4-fluorophenyl)-1H-indazol-5-yl)-2,2,5-trimethylhexyl)-3-((S)-1-(naphthalene-1-yl)ethyl)urea]"
0.73 nM,,12 nM,"CC(CNS(=O)(=O)C(C)C)C(c1ccccc1)c1ccc2c(cnn2-c2ccc(F)cc2)c1 (stereo not drawn) [Example 94, N-(3-(1-(4-fluorophenyl)-1H-indazol-5-yl)-2-methyl-3-phenylpropyl)propane-2-sulfonamide]"
2.1 nM,,1540 nM,"CC(C)CC(c1ccc2c(cnn2-c2ccc(F)cc2)c1)C(C)(C)CNC(=O)N[C@H](C)CO (stereo partly drawn) [Example 45, 1-(3-(1-(4-fluorophenyl)-1H-indazol-5-yl)-2,2,5-trimethylhexyl)-3-((R)-1-hydroxypropan-2-yl)urea]"
